This assay concerns the target T1, P2X purinoceptor 7 (Homo sapiens, UniProt Q99572).
T1 sequence (Q99572 whole entry): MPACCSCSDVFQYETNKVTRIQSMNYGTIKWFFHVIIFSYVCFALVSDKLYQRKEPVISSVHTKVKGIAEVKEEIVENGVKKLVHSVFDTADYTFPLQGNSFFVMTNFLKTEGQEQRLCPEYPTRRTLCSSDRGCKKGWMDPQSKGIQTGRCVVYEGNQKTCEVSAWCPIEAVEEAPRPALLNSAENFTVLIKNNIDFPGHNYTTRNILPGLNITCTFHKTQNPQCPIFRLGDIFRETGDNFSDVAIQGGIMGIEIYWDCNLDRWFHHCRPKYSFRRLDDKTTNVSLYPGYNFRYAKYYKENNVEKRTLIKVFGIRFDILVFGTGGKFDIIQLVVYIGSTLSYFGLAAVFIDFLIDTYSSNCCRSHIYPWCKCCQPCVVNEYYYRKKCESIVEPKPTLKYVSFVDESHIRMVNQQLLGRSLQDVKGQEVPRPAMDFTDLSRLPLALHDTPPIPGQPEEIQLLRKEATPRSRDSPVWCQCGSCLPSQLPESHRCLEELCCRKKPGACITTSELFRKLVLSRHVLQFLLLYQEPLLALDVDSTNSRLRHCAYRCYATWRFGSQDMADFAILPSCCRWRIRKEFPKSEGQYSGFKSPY
Nature of the assay: SUPPLEMENTARY: Inhibition of human P2X7 receptor assessed as inhibition of ethidium bromide accumulation. Same assay as CHEMBL1103860.
Turning to `Cc1ccc(Br)cc1N1CCN(C(=O)c2cccc(C(F)(F)F)c2Cl)CC1=O`, the IC50 is 39.8 nM.
Under `CN1C(=O)N(c2ccccn2)C[C@H]1C(=O)NCc1cccc(C(F)(F)F)c1Cl` stands 6.31 nM; under `O=C(NCc1ccc(F)cc1Cl)C1CC(=O)N(C2CC2)C1` (stereo not drawn), 501 nM.
Under `O=C(c1ccc(F)cc1Cl)N1CCN(c2cccc3ccccc23)C(=O)C1` stands 100 nM.
In the case of `CN1C[C@@H](C(=O)NCc2cccc(C(F)(F)F)c2Cl)NC1=O`, the IC50 was 63.1 nM.
The value for `Cc1ccccc1N1CCN(C(=O)c2ccc(Cl)cc2Cl)CC1=O` was 63.1 nM; that for `Cc1cc(F)cc(C)c1N1CCN(Cc2cccc(C(F)(F)F)c2Cl)C(=O)C1=O` was 50.1 nM; that for `CN1C(=O)N(c2cccnc2Cl)C[C@H]1C(=O)NCc1ccc(F)c(F)c1Cl` was 10 nM.
Take `CN1C(=O)N(c2ccc(F)nc2)C[C@H]1C(=O)NCc1cccc(C(F)(F)F)c1Cl`: the IC50 was 7.94 nM.
Consider `CN1CC(C(=O)NCc2ccc(Cl)cc2Cl)CC1=O` (stereo not drawn), for which the IC50 is 158 nM.
For the compound `CN1C(=O)N(CCN2CCOCC2)CC1C(=O)NCc1ccc(Cl)cc1Cl` (stereo not drawn), the IC50 is 79.4 nM.
The value for `CN1CCOc2cccc(N3CCN(Cc4ccc(F)cc4Cl)C(=O)C3=O)c21` was 251 nM.
As for `Cc1nn(-c2ccccc2)c(C)c1CC(=O)NCc1ccc(F)c(F)c1F`, the IC50 is 63.1 nM.
In the case of `O=C(c1cccc(C(F)(F)F)c1Cl)N1CCn2cc(-c3ccccc3)nc2C1`, the IC50 is 316 nM.
Under `CN1C(=O)N(c2cccnc2Cl)C[C@H]1C(=O)NCc1cccc(C(F)(F)F)c1Cl` stands 1.58 nM; under `O=C(c1ccc(F)cc1Cl)N1CCn2c(nnc2-c2cccc(Cl)c2)C1`, 12.6 nM; under `CCN1C(=O)CC[C@H]1C(=O)NCc1c(F)ccc(F)c1Cl`, 794 nM.
Turning to `Cc1c(CN2CCOCC2)cccc1N1CCN(Cc2ccc(F)cc2Cl)C(=O)C1=O`, the IC50 was 100 nM.
Turning to `CCN1C(=O)c2ccccc2C1C(=O)NCc1ccc(Cl)cc1Cl` (stereo not drawn), the IC50 is 398 nM.
On to `O=C(c1cccc(C(F)(F)F)c1Cl)N1CCn2c(nnc2N2CCC2)C1`, for which the IC50 is 25.1 nM.
`O=C1C(=O)N(c2ccc(F)cc2Cl)CCN1Cc1ccc(F)cc1Cl`: the IC50 was 200 nM.
As for `COc1ccccc1-n1nc(C)c(CC(=O)NCc2ccc(F)cc2Cl)c1C`, the IC50 is 501 nM.
Take `Cc1nn(CC(C)(C)C)c(C)c1CC(=O)NCc1ccc(F)cc1Cl`: the IC50 is 100 nM.
For the compound `O=C(c1ccc(F)cc1Cl)N1CCN(c2ccccc2Cl)C(=O)C1`, the IC50 is 39.8 nM.
For the compound `Cn1cccc1-c1nnc2n1CCN(C(=O)c1cccc(Cl)c1Cl)C2`, the IC50 was 12.6 nM.
`CN1C(=O)CC[C@H]1C(=O)NCc1ccc(F)cc1Br`: the IC50 was 39.8 nM.
Take `Cc1nn(-c2ccccc2)c(C)c1CC(=O)NCc1c(F)cccc1Cl`: the IC50 was 316 nM.
Under `O=C(c1cccc(C(F)(F)F)c1Cl)N1CCN(c2ccc(F)cc2)C(=O)C1` stands 25.1 nM.
Take `CN1C(=O)N(c2cn(C)cn2)C[C@H]1C(=O)NCc1ccc(F)c(F)c1Cl`: the IC50 was 15.8 nM.
`Cc1cccc(C)c1N1CCN(Cc2cccc(C(F)(F)F)c2Cl)C(=O)C1=O`: the IC50 was 6.31 nM.
Consider `CN1C(=O)c2ccccc2C1C(=O)NCc1ccc(Cl)cc1Cl` (stereo not drawn), for which the IC50 was 126 nM.
The value for `O=C(c1c(Cl)cc(Cl)cc1Cl)N1CCn2c(Br)nnc2C1` was 398 nM; that for `CCN1C(=O)CC[C@@H]1C(=O)NCc1c(C)cccc1Cl` was 501 nM.
Take `CN1[C@H](C(=O)NCc2ccc(F)c(F)c2Cl)CCS1(=O)=O`: the IC50 was 79.4 nM.
For `Cc1nn(CCN2CCCC2)c(C)c1CC(=O)NCc1ccc(F)cc1Cl`, the IC50 is 126 nM.
Regarding `CCOc1ccc(-n2nc(C)c(CC(=O)NCc3ccc(F)cc3Cl)c2C)cc1`, the IC50 was 158 nM.
For `CCN1[C@H](C(=O)NCc2ccc(F)c(F)c2F)CCS1(=O)=O`, the 50% inhibitory concentration (IC50) was 251 nM.
For the compound `O=C(c1cccc(C(F)(F)F)c1Cl)N1CCN(C2CCCC2)C(=O)C1`, the IC50 is 158 nM.
For the compound `CC(C)N1[C@H](C(=O)NCc2ccc(F)c(F)c2F)CCS1(=O)=O`, the IC50 was 501 nM.
As for `O=C(Cc1cnn(-c2ccc(F)cc2)c1C(F)(F)F)NCc1ccc(F)cc1Cl`, the IC50 was 1260 nM.
On to `CCCN1CCN(C(=O)c2cccc(C(F)(F)F)c2Cl)CC1=O`, for which the IC50 was 50.1 nM.
Turning to `Cc1nn(C2CCN(Cc3ccccc3)CC2)c(C)c1CC(=O)NCc1ccc(F)cc1Cl`, the IC50 is 63.1 nM.
Take `O=C(c1ccc(Cl)cc1Cl)N1CCn2c(Br)nnc2C1`: the IC50 was 200 nM.
Take `O=C1C(=O)N(c2cccc3ncccc23)CCN1Cc1ccc(F)cc1Cl`: the IC50 is 501 nM.
The value for `CN1C(=O)N(CCCN2CCOCC2)CC1C(=O)NCc1cccc(C(F)(F)F)c1Cl` (stereo not drawn) was 50.1 nM; that for `CN1C(=O)N(CC(F)F)C[C@H]1C(=O)NCc1ccc(Cl)cc1Cl` was 2.51 nM; that for `CN1C[C@@H](C(=O)NCc2ccc(Cl)cc2Cl)N(CC(F)F)C1=O` was 15.8 nM.
Take `Cc1ccc(-n2nc(C)c(CC(=O)NCc3ccc(F)cc3Cl)c2C)c(C)n1`: the half-maximal inhibitory concentration (IC50) was 398 nM.
With `Cc1cccc(Cl)c1CNC(=O)[C@@H]1CCS(=O)(=O)N1C`, the IC50 was 398 nM.
Take `O=C(c1ccc(F)c(Cl)c1F)N1CCN(c2ccc(F)cc2Cl)C(=O)C1`: the IC50 was 100 nM.
`Cc1ccc(-n2nc(C)c(CC(=O)NCc3ccc(F)cc3Cl)c2C)cc1`: the IC50 is 126 nM.
As to `Cc1ccc(N2C[C@@H](C(=O)NCc3ccc(F)cc3Cl)N(C)C2=O)c(C)n1`, the IC50 was 63.1 nM.
On to `CC(C)N1C(=O)CC[C@H]1C(=O)NCc1ccc(F)c(F)c1Cl`, for which the IC50 was 20 nM.
With `O=C(c1cccc(Cl)c1Cl)N1CCN(c2ccc(Cl)cc2)C(=O)C1`, the IC50 is 126 nM.
The value for `O=C(c1ccc(F)cc1Cl)N1CCn2c(nnc2-c2cnc(Cl)cn2)C1` was 200 nM; that for `O=C(NCc1cccc(Cl)c1Cl)[C@@H]1CCC(=O)N1C1CCC1` was 12.6 nM.
With `O=C1C(=O)N(c2ccccc2N2CCCCC2)CCN1Cc1ccc(F)cc1Cl`, the IC50 was 50.1 nM.
The value for `CCN1C(=O)C(C)(C)C[C@H]1C(=O)NCc1cccc(C(F)(F)F)c1Cl` was 5.01 nM.
As to `Cc1c(CNC(=O)[C@@H]2CN(C)C(=O)N2C)cccc1C(F)(F)F`, the IC50 was 1.26 nM.
As to `O=C(c1ccc(F)cc1Cl)N1CCn2c(nnc2-c2cccc(Cl)c2Cl)C1`, the IC50 is 100 nM.
As for `O=C1C(=O)N(c2ccccc2I)CCN1Cc1ccc(F)cc1Cl`, the IC50 is 7.94 nM.
For `CCN1C(=O)CC[C@H]1C(=O)NCc1ccc(F)cc1C(F)(F)F`, the IC50 was 39.8 nM.
Take `O=C(c1c(Cl)cc(Cl)cc1Cl)N1CCn2c(-c3ccccc3)cnc2C1`: the IC50 is 12.6 nM.
Turning to `Cc1c(Br)cccc1N1CCN(Cc2ccc(F)cc2Cl)C(=O)C1=O`, the IC50 is 50.1 nM.
`COc1ccccc1N1CCN(Cc2ccc(F)cc2Cl)C(=O)C1=O`: the IC50 is 50.1 nM.
Under `Cc1nn(-c2ccccc2)c(C)c1CC(=O)NCc1ccc(Cl)c(Cl)c1` stands 158 nM; under `CC(C)N1[C@H](C(=O)NCc2ccc(Cl)cc2Cl)CCS1(=O)=O`, 50.1 nM; under `Cc1nn(CC(C)C)c(C)c1CC(=O)NCc1ccc(F)cc1Cl`, 251 nM.
For the compound `Cc1c(N2CCOCC2)cccc1N1CCN(C(=O)c2cccc(Cl)c2Cl)CC1=O`, the IC50 was 15.8 nM.
As to `COc1ccc(F)cc1N1CCN(Cc2ccc(F)cc2Cl)C(=O)C1=O`, the IC50 is 100 nM.
Under `Cc1ccccc1N1CCN(Cc2c(F)cccc2Cl)C(=O)C1=O` stands 1000 nM; under `Cn1ccc(-c2nnc3n2CCN(C(=O)c2cccc(C(F)(F)F)c2Cl)C3)n1`, 5.01 nM; under `O=C1C(=O)N(c2cccc(I)c2)CCN1Cc1ccc(F)cc1Cl`, 398 nM.
Under `CCN1[C@H](C(=O)NCc2ccc(F)cc2Cl)CCCS1(=O)=O` stands 631 nM; under `O=C(c1ccc(F)cc1Cl)N1CCn2c(Br)cnc2C1`, 501 nM.
Regarding `O=C1CN(C(=O)c2cccc(C(F)(F)F)c2Cl)CCN1CC1CCCO1` (stereo not drawn), the IC50 was 79.4 nM.
Under `CC(C)CN1[C@H](C(=O)NCc2ccc(Cl)cc2Cl)CCS1(=O)=O` stands 158 nM.
The value for `O=C(c1cccc(C(F)(F)F)c1Cl)N1CCn2c(-c3ccc(F)cn3)cnc2C1` was 3.98 nM.
For the compound `CN1C(=O)N(C2CCCC2)CC1C(=O)NCc1ccc(Cl)cc1Cl` (stereo not drawn), the IC50 was 5.01 nM.
For the compound `O=C(c1ccc(Cl)cc1C(F)(F)F)N1CCn2c(nnc2-c2cnccn2)C1`, the IC50 was 20 nM.
Regarding `O=C(c1cccc(C(F)(F)F)c1Cl)N1CCn2c(-c3cnccn3)cnc2C1`, the IC50 is 2 nM.
As for `CN1C(=O)N(c2ccnc(F)c2)C[C@H]1C(=O)NCc1ccc(F)c(F)c1Cl`, the IC50 was 12.6 nM.
For the compound `CN1C(=O)NC[C@H]1C(=O)NCc1cccc(C(F)(F)F)c1F`, the IC50 was 39.8 nM.
Consider `CCN1C(=O)CC[C@@H]1C(=O)NCc1cccc(Cl)c1F`, for which the IC50 is 794 nM.
On to `Cc1cc(F)cc(C)c1N1CCN(Cc2ccc(F)cc2Cl)C(=O)C1=O`, for which the IC50 was 39.8 nM.
In the case of `CCc1ccccc1-n1cc(CC(=O)NCc2ccc(F)cc2Cl)cn1`, the IC50 was 251 nM.
For the compound `CCN1C(=O)N(C)C[C@H]1C(=O)NCc1ccc(F)cc1Cl`, the IC50 is 7.94 nM.
With `O=C(c1cccc(C(F)(F)F)c1Cl)N1CCn2c(-c3nccs3)cnc2C1`, the IC50 was 1.58 nM.

For orientation: IC50 means the concentration that inhibits the measured activity by half.
